# Results reported in patent US9642789B2, “Methods for generating new hair follicles, treating baldness, and hair removal” (THE TRUSTEES OF THE UNIVERSITY OF PENNSYLVANIA, priority 2005, dated 2017).
# “Also recorded” adds a separate entry of the source.
# Target: T1, EGF receptor (Mus musculus, UniProt Q01279)
# T1 construct: from tissue; host or cells: healing skin wound of live mice
# Experiment: EDIHN after single injection of EGF receptor inhibitor into wound
# Type: in vivo, mice
# Settings: 150 μM in 10 μL, single injection 11 days after 1 cm^2 incisional wounding; K17 and AP staining
# Protocol: To determine the effect of administration of EGF receptor inhibitors on DIHN, the inhibitor AG1478 (150 μM in 10 μL volume) was administered as a single injection 11 days after incisional wounding (1 cm^2) to the middle of the wound near the skin surface. […] Left panel: epidermis stained for K17, with three large hair follicles next to each other. Right panel: dermis stained for AP with large coalescing dermal papilla areas.
# T1 sequence (Q01279 25-1210): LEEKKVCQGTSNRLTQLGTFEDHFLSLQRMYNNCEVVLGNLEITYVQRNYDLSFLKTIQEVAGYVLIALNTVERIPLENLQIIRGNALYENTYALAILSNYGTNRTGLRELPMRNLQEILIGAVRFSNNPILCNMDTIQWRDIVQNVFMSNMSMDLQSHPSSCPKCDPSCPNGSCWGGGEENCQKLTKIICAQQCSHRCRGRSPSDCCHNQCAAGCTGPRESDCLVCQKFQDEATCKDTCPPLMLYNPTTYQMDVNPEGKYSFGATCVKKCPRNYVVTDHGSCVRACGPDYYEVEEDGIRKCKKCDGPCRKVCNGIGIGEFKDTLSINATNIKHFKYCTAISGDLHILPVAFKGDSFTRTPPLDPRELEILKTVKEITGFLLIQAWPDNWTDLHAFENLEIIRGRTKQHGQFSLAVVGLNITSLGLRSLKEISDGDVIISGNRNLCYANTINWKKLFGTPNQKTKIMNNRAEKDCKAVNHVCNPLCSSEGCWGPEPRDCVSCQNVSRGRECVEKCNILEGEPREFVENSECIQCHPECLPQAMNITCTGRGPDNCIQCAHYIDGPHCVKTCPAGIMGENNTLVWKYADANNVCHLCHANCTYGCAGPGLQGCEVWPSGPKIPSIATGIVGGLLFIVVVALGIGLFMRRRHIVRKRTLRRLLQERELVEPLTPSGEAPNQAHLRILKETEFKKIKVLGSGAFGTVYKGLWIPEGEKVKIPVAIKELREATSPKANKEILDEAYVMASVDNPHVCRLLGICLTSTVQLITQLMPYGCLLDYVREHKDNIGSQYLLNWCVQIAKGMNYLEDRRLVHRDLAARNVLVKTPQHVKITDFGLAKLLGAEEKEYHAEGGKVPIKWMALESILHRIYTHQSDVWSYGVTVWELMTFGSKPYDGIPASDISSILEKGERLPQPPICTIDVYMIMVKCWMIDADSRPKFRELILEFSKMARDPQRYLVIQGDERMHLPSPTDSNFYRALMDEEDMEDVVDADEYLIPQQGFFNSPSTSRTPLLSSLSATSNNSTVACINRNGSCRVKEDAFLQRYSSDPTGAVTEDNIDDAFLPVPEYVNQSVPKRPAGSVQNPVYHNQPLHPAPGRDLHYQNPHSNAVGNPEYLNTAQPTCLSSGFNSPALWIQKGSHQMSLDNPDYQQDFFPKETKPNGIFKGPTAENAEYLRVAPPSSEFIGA
smiles,measurement,value
COc1cc2ncnc(Nc3cccc(Cl)c3)c2cc1OC [AG1478],number and size of hair follicles generated compared with control mice wounded only,more and larger hair follicles; also recorded: more and larger HF
